Reference: the supplement of paper PMC10627819

Tests used:
S. aureus Newman [1] = assay: fitness (endpoint OD595 vs no drug) (fraction); higher = more growth
Summary of the method: (§1)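 In 384-well plates at 37 °C, cultures began at OD595 0.01 in 30 µl, with 55 µl used for S. pneumoniae. OD595 readings every 30 min for 14 h were corrected by the first reading. Fitness divides the stationary-phase transition optical density by the robust mean of no-drug control wells. The result is capped at 1.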

S. pneumoniae D39V [2] = assay: as above
Summary of the method: as §1

B. subtilis 168 [3] = assay: as above
Summary of the method: as §1

S. aureus Newman [4] = assay: Bliss interaction score (quartile over a dose matrix) (fitness difference); higher = more antagonism (negative = synergy)
Summary of the method: (§2)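 Each OD595 reading at entry into stationary phase was scaled to the robust mean of the untreated wells on its plate, with a ceiling of 1. These ratios define fitness, and single-drug fitness was inferred from combinations. The Bliss score compares observed fitness with the product-based expectation and is reported as quartiles across all replicate types, technical, biological and donor/recipient.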

S. aureus DSM 20231 [5] = assay: as above
Summary of the method: as §2

S. pneumoniae D39V [6] = assay: as above
Summary of the method: as §2

B. subtilis 168 [7] = assay: as above
Summary of the method: as §2

S. aureus DSM 20231 [8] = assay: fitness (endpoint OD595 vs no drug) (fraction); higher = more growth
Summary of the method: as §1
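For Bliss interaction score (quartile over a dose matrix) in this document: first quartile when negative (synergy) and third quartile when positive (antagonism).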
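For fitness (endpoint OD595 vs no drug) in this document: OD595 on entry to stationary phase over no-drug wells; at most 1.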

O=C(O[C@@H]1Cc2c(O)cc(O)cc2O[C@@H]1c1cc(O)c(O)c(O)c1)c1cc(O)c(O)c(O)c1 [EGCG] + CN[C@@H]1[C@H](O[C@H]2[C@H](O[C@H]3[C@H](O)[C@@H](O)[C@H](N=C(N)N)[C@@H](O)[C@@H]3N=C(N)N)O[C@@H](C)[C@]2(O)C=O)O[C@@H](CO)[C@H](O)[C@H]1O [Streptomycin]
fitness
Conditions	first compound 6.25 µg/mL	first compound 12.5 µg/mL	first compound 25 µg/mL	first compound 50 µg/mL
B. subtilis 168 [3], partner 2 µg/mL	0.918	–	0.325	–
B. subtilis 168 [3], partner 4 µg/mL	0.823	0.718	0.299	–
B. subtilis 168 [3], partner 8 µg/mL	–	0.522	–	–
S. aureus Newman [1], partner 1 µg/mL	–	0.774	0.773	0.713
S. aureus Newman [1], partner 2 µg/mL	–	0.772	0.767	0.747
S. aureus Newman [1], partner 4 µg/mL	–	–	0.453	–
S. pneumoniae D39V [2], partner 2 µg/mL	–	0.887	0.933	0.937
S. pneumoniae D39V [2], partner 4 µg/mL	–	0.902	0.914	0.968
S. pneumoniae D39V [2], partner 8 µg/mL	–	0.881	0.943	0.981

S. pneumoniae D39V [2], partner 16 µg/mL, one replicate
Conditions	fitness
first compound 12.5 µg/mL	0.756
first compound 25 µg/mL	0.759
first compound 50 µg/mL	0.762

Conditions	Bliss interaction score
B. subtilis 168 [7]	0.303
S. aureus DSM 20231 [5]	0.136
S. aureus Newman [4]	0.0695
S. pneumoniae D39V [6]	0.0781

O=C(O[C@@H]1Cc2c(O)cc(O)cc2O[C@@H]1c1cc(O)c(O)c(O)c1)c1cc(O)c(O)c(O)c1 [EGCG] + COc1cc(Cc2cnc(N)nc2N)cc(OC)c1OC [Trimethoprim]
fitness
Conditions	partner 0.125 µg/mL	partner 0.25 µg/mL	partner 0.5 µg/mL	partner 1 µg/mL
B. subtilis 168 [3], first compound 6.25 µg/mL	0.611	–	0.508	–
B. subtilis 168 [3], first compound 12.5 µg/mL	0.363	0.426	0.41	–
B. subtilis 168 [3], first compound 25 µg/mL	0.232	–	0.244	–
S. aureus DSM 20231 [8], first compound 12.5 µg/mL	0.621	0.544	0.338	0.0444
S. aureus DSM 20231 [8], first compound 25 µg/mL	0.675	0.541	0.3	0.0338
S. aureus DSM 20231 [8], first compound 50 µg/mL	0.71	0.588	0.292	0.0285

fitness, B. subtilis 168 [3], one replicate
Conditions	partner 0.1 µg/mL	partner 0.2 µg/mL	partner 0.4 µg/mL	partner 1 µg/mL	partner 2 µg/mL
first compound 6.25 µg/mL	0.856	0.624	0.464	0.346	0.485
first compound 12.5 µg/mL	0.438	0.252	0.235	0.127	0.13
first compound 25 µg/mL	0.199	0.102	0.0997	0.0869	0.0586

Conditions	Bliss interaction score
B. subtilis 168 [7]	-0.0682
S. aureus DSM 20231 [5]	0.0729
S. aureus Newman [4]	0.115
S. pneumoniae D39V [6]	0.12

CCC[C@@H]1C[C@@H](C(=O)N[C@@H]([C@H]2O[C@H](SC)[C@H](O)[C@@H](O)[C@H]2O)[C@@H](C)O)N(C)C1 [Lincomycin] + CCCCCCCCCC(=O)N[C@@H]1[C@H]([C@@H]([C@H](O[C@H]1OC2=C3C=C4C=C2OC5=C(C=C(C=C5)[C@H]([C@H]6C(=O)N[C@@H](C7=C(C(=CC(=C7)O)OC8[C@H]([C@H]([C@@H]([C@H](O8)CO)O)O)O)C9=C(C=CC(=C9)[C@H](C(=O)N6)NC(=O)[C@@H]4NC(=O)[C@@H]1C2=CC(=CC(=C2)OC2=C(C=CC(=C2)[C@H](C(=O)N[C@H](CC2=CC(=C(O3)C=C2)Cl)C(=O)N1)N)O)O)O)C(=O)O)O[C@H]1[C@@H]([C@H]([C@@H]([C@H](O1)CO)O)O)NC(=O)C)Cl)CO)O)O [Teicoplanin]
fitness, S. aureus DSM 20231 [8], main component drawn
Conditions	partner 0.1562 µg/mL	partner 0.3125 µg/mL	partner 0.625 µg/mL
first compound 0.1 µg/mL	0.913	0.979	≥ 1
first compound 0.2 µg/mL	0.825	0.821	0.941

main component drawn
Conditions	Bliss interaction score
B. subtilis 168 [7]	-0.111
S. aureus DSM 20231 [5]	0.118
S. aureus Newman [4]	0.179
S. pneumoniae D39V [6]	-0.0397

CCC[C@@H]1C[C@@H](C(=O)N[C@@H]([C@H]2O[C@H](SC)[C@H](O)[C@@H](O)[C@H]2O)[C@@H](C)O)N(C)C1 [Lincomycin] + CN[C@H](CC(C)C)C(=O)N[C@H]1C(=O)N[C@@H](CC(N)=O)C(=O)N[C@H]2C(=O)N[C@H]3C(=O)N[C@H](C(=O)N[C@H](C(=O)O)c4cc(O)cc(O)c4-c4cc3ccc4O)[C@H](O)c3ccc(c(Cl)c3)Oc3cc2cc(c3O[C@@H]2O[C@H](CO)[C@@H](O)[C@H](O)[C@H]2O[C@H]2C[C@](C)(N)[C@H](O)[C@H](C)O2)Oc2ccc(cc2Cl)[C@H]1O [Vancomycin]
Conditions	fitness
S. aureus DSM 20231 [8], first compound 0.1 µg/mL, partner 0.1875 µg/mL	0.805
S. aureus DSM 20231 [8], first compound 0.1 µg/mL, partner 0.375 µg/mL	0.873
S. aureus DSM 20231 [8], first compound 0.1 µg/mL, partner 0.75 µg/mL	0.922
S. aureus DSM 20231 [8], first compound 0.2 µg/mL, partner 0.1875 µg/mL	0.679
S. aureus DSM 20231 [8], first compound 0.2 µg/mL, partner 0.375 µg/mL	0.701
S. aureus DSM 20231 [8], first compound 0.2 µg/mL, partner 0.75 µg/mL	0.745
S. aureus DSM 20231 [8], first compound 0.4 µg/mL, partner 0.1875 µg/mL	0.346
S. aureus DSM 20231 [8], first compound 0.4 µg/mL, partner 0.375 µg/mL	0.336
S. aureus DSM 20231 [8], first compound 0.4 µg/mL, partner 0.75 µg/mL	0.371
S. pneumoniae D39V [2], first compound 0.2 µg/mL, partner 0.03125 µg/mL	0.706
S. pneumoniae D39V [2], first compound 0.2 µg/mL, partner 0.0625 µg/mL	0.695
S. pneumoniae D39V [2], first compound 0.2 µg/mL, partner 0.125 µg/mL	0.489
S. pneumoniae D39V [2], first compound 0.215 µg/mL, partner 0.125 µg/mL	0.845
S. pneumoniae D39V [2], first compound 0.215 µg/mL, partner 0.25 µg/mL	0.782
S. pneumoniae D39V [2], first compound 0.4 µg/mL, partner 0.03125 µg/mL	0.61
S. pneumoniae D39V [2], first compound 0.4 µg/mL, partner 0.0625 µg/mL	0.604
S. pneumoniae D39V [2], first compound 0.43 µg/mL, partner 0.125 µg/mL	0.792
S. pneumoniae D39V [2], first compound 0.43 µg/mL, partner 0.25 µg/mL	0.699
S. pneumoniae D39V [2], first compound 0.43 µg/mL, partner 0.5 µg/mL	0.248
S. pneumoniae D39V [2], first compound 0.8 µg/mL, partner 0.03125 µg/mL	0.279
S. pneumoniae D39V [2], first compound 0.8 µg/mL, partner 0.125 µg/mL	0.191
S. pneumoniae D39V [2], first compound 0.86 µg/mL, partner 0.125 µg/mL	0.356
S. pneumoniae D39V [2], first compound 0.86 µg/mL, partner 0.25 µg/mL	0.311
S. pneumoniae D39V [2], first compound 0.86 µg/mL, partner 0.5 µg/mL	0.0793

Conditions	Bliss interaction score
B. subtilis 168 [7]	0.0223
S. aureus DSM 20231 [5]	-0.0567
S. aureus Newman [4]	0.0733
S. pneumoniae D39V [6]	0.117

CCC[C@@H]1C[C@@H](C(=O)N[C@@H]([C@H]2O[C@H](SC)[C@H](O)[C@@H](O)[C@H]2O)[C@@H](C)O)N(C)C1 [Lincomycin] + Cn1nnc(-c2ccc(-c3ccc(N4C[C@H](CO)OC4=O)cc3F)cn2)n1 [Tedizolid]
fitness
Conditions	partner 0.03125 µg/mL	partner 0.0625 µg/mL	partner 0.125 µg/mL	partner 0.25 µg/mL	partner 0.5 µg/mL
S. aureus DSM 20231 [8], first compound 0.1 µg/mL	–	0.806	0.683	0.364	–
S. aureus DSM 20231 [8], first compound 0.2 µg/mL	–	0.568	0.434	0.229	–
S. aureus DSM 20231 [8], first compound 0.4 µg/mL	–	0.27	0.182	0.115	–
S. pneumoniae D39V [2], first compound 0.2 µg/mL	0.732	0.796	0.665	–	–
S. pneumoniae D39V [2], first compound 0.215 µg/mL	–	–	0.754	0.731	0.345
S. pneumoniae D39V [2], first compound 0.4 µg/mL	0.647	0.716	0.611	–	–
S. pneumoniae D39V [2], first compound 0.43 µg/mL	–	–	0.661	0.629	0.277
S. pneumoniae D39V [2], first compound 0.8 µg/mL	0.549	0.67	0.57	–	–
S. pneumoniae D39V [2], first compound 0.86 µg/mL	–	–	0.209	0.162	0.0655

Conditions	Bliss interaction score
B. subtilis 168 [7]	0.0845
S. aureus DSM 20231 [5]	-0.114
S. aureus Newman [4]	-0.129
S. pneumoniae D39V [6]	0.138
